# Data reported in ChEMBL document CHEMBL2417377, “Hit-to-lead optimization and kinase selectivity of imidazo[1,2-a]quinoxalin-4-amine derived JNK1 inhibitors” (Bioorg Med Chem Lett, 2013).
# Columns and labels:
# [1] = molecular target: T1, Mitogen-activated protein kinase 8 (Homo sapiens, UniProt P45983); experiment: Inhibition of human recombinant histidine-tagged full-length JNK1 expressed in insect cells activated by GST-tagged MAP2K7 using ATF2 as substrate after 1 hr by luminescence plate reader analysis
# [2] = molecular target: Mitogen-activated protein kinase 9 (Homo sapiens, UniProt P45984); experiment: Inhibition of JNK2 in human Jurkat cell lysates using desthiobiotin-tagged ATP probe AX9989 followed by trypsinization by LC/MS analysis
# [3] = molecular target: T1, Mitogen-activated protein kinase 8; experiment: Inhibition of JNK1 in human Jurkat cell lysates using desthiobiotin-tagged ATP probe AX9989 followed by trypsinization by LC/MS analysis
# T1 sequence (P45983 whole entry): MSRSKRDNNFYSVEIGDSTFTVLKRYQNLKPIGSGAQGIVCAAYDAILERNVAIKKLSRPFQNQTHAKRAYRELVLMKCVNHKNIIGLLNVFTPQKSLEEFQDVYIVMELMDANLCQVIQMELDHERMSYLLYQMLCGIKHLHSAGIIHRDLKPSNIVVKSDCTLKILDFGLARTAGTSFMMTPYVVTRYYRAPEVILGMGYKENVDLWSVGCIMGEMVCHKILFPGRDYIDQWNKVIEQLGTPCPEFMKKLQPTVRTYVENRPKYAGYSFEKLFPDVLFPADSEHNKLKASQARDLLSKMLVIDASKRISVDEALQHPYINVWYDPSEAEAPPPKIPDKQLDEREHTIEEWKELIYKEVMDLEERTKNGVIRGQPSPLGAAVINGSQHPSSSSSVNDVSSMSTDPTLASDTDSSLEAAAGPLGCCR
# Chain of Mitogen-activated protein kinase 9 (P45984 whole entry): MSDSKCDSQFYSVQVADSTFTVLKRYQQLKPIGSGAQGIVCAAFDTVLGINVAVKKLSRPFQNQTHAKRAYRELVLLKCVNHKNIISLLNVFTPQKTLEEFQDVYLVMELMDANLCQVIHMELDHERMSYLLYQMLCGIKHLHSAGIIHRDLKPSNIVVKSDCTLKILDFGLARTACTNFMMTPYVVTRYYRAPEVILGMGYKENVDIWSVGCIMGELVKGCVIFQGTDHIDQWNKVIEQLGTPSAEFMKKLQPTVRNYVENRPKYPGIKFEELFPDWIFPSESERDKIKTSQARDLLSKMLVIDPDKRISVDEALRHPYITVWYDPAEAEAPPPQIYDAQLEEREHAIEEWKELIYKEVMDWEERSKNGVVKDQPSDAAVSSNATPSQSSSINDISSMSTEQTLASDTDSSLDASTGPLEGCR
IC50 [1] [nM],IC50 [2] [nM],IC50 [3] [nM],SMILES
73000,,,O[C@H]1CC[C@H](NC2=Nc3ccccc3N3CCN=C23)CC1
620,,,O=C(N[C@H](CCO)c1ccccc1)c1ccc2nc(N[C@H]3CC[C@H](O)CC3)c3nccn3c2c1
1700,,,CC[C@H](NC(=O)c1ccc2nc(N[C@H]3CC[C@H](O)CC3)c3nccn3c2c1)c1ccccc1
160,> 190,59,CCC(CC)(NC(=O)c1ccc2nc(N[C@H]3CC[C@H](O)CC3)c3nccn3c2c1)c1ccccc1
180,,,O=C(NC1(c2ccccc2)CCCC1)c1ccc2nc(N[C@H]3CC[C@H](O)CC3)c3nccn3c2c1
190,> 190,140,O=C(NC1(c2ccc(Cl)cc2)CC1)c1ccc2nc(N[C@H]3CC[C@H](O)CC3)c3nccn3c2c1
690,,,COC[C@@H](NC(=O)c1ccc2nc(N[C@H]3CC[C@H](O)CC3)c3nccn3c2c1)c1ccccc1
430,,,O=C(NC1(c2ccccc2)CCCCCC1)c1ccc2nc(N[C@H]3CC[C@H](O)CC3)c3nccn3c2c1
350,,,CC(C)[C@@H](NC(=O)c1ccc2nc(N[C@H]3CC[C@H](O)CC3)c3nccn3c2c1)c1ccccc1
> 100000,,,O[C@H]1CC[C@H](Nc2nc3ccccc3n3cccc23)CC1
680,,,O=C(NCc1ccccc1)c1ccc2nc(N[C@H]3CC[C@H](O)CC3)c3nccn3c2c1
4900,,,O=C(N[C@@H](CO)c1ccccc1)c1ccc2nc(N[C@H]3CC[C@H](O)CC3)c3nccn3c2c1
1700,,,N[C@H]1CC[C@H](Nc2nc3ccccc3n3ccnc23)CC1
8000,,,FC1(F)CCC(Nc2nc3ccccc3n3ccnc23)CC1
1220,,,O=C(NC1(c2ccccc2)CCCCC1)c1ccc2nc(N[C@H]3CC[C@H](O)CC3)c3nccn3c2c1
4170,,,NC(=O)c1ccc2c(c1)nc(N[C@H]1CC[C@H](O)CC1)c1nccn12
250,,,Cc1ccc(C2(NC(=O)c3ccc4nc(N[C@H]5CC[C@H](O)CC5)c5nccn5c4c3)CC2)cc1
1500,,,C[C@@H](NC(=O)c1ccc2c(c1)nc(N[C@H]1CC[C@H](O)CC1)c1nccn12)c1ccccc1
2400,,,CS(=O)(=O)N[C@H]1CC[C@H](Nc2nc3ccccc3n3ccnc23)CC1
1500,,82,O=C(O)c1ccc2c(c1)nc(N[C@H]1CC[C@H](O)CC1)c1nccn12
360,,,O=C(NC(c1ccccc1)c1ccccc1)c1ccc2nc(N[C@H]3CC[C@H](O)CC3)c3nccn3c2c1
490,,,O=C(NCc1ccccc1)c1ccc2c(c1)nc(N[C@H]1CC[C@H](O)CC1)c1nccn12
